Test results taken from US20090202439A1, “Methods for treatment of angiogenesis” (The Johns Hopkins University, priority 2004, published 2009).
Like-named read-outs stand apart in the source and are kept apart here.

How the values were obtained:
PECAM-1 [1] = experiment: PECAM-1 mRNA expression by real-time RT-PCR in HUVECs; format: cell-based, human
PECAM-1 [2] = experiment: PECAM-1 protein expression by Western immunoblot in HUVECs; format: cell-based, human; details: for bypass of inhibitory effect of D-PDMP on VEGF induced PECAM-1 protein expression: HUVECs treated with D-PDMP, then lipid; for PECAM-1 expression induced by lipid: 2.5 μM for 4 hrs; for reversal of inhibitory effect of PPMP on VEGF induced PECAM-1 expression: PPMP 90 min, then lipid 2.5 μM 4 hrs, GlcCer to a lesser extent than LacCer; for VEGF/LacCer induced PECAM-1: HUVECs pre-treated with NAC, DPI or PDTC
Protocol: Cell Culture—Human umbilical vein endothelial cells (HUVEC) and endothelial cells growth medium EGM™ were purchased from Cambrex, (Walkersville, Md.) and were cultured in EGM™ medium supplemented with 10% fetal bovine serum (FBS).
Western Immunoblot Analysis—[…] of protein was resolved by 10% SDS-PAGE and then transferred to nitrocellulose membrane. The membrane-bound primary antibodies were visualized by horseradish peroxidase-conjugated secondary antibody using chemiluminescence kit. The films were then densitometrically scanned using Molecular Dynamics Image Scanner and analyzed using Image Quant software.

HUVECs = experiment: In vitro angiogenesis/tube formation assay in HUVECs; format: cell-based, human; details: for reversal of inhibitory effect of PPMP on VEGF induced angiogenesis: then lipid 2.5 μM 4 hrs, GlcCer to a lesser extent than LacCer; for bypass of inhibitory effect of D-PDMP on VEGF induced angiogenesis: HUVECs treated with D-PDMP, then lipid
Protocol: (§1) In vitro angiogenesis/tube formation assay—In vitro angiogenesis assay was performed using a commercially available kit from Chemicon Inc (Temecula, Calif.).

REN (WT) cells = experiment: In vitro angiogenesis assay in REN (WT) cells lacking PECAM-1; format: cell-based, human; details: VEGF 25 ng/ml or LacCer 2.5 μM 4 hrs, compared with 2% FBS treated cells
Protocol: (§2) REN (WT) [A] were either stimulated with VEGF (25 ng/ml) [B]; LacCer (2.5 μM) [C] or REN (rhPECAM-1) [D] with VEGF (25 ng/ml) (E) or LacCer [F] for 4 hrs and then in vitro angiogenesis assays were performed as described earlier. Results shown here are from set of experiments performed in triplicate yielding similar results.
(§3) Cell Culture—Human umbilical vein endothelial cells (HUVEC) and endothelial cells growth medium EGM™ were purchased from Cambrex, (Walkersville, Md.) and were cultured in EGM™ medium supplemented with 10% fetal bovine serum (FBS). Human mesoendothelioma cell line [(REN— wild type (WT)] which lacks endogenous PECAM-1 expression and REN (mt-rhPECAM-1) expressing human PECAM-1 was kindly provided by Dr. Steven Albelda, University of Pennsylvania Medical Center, USA. REN-WT was grown in RPMI 1640 supplemented with 101/&FBS. REN (mtrhPECAM-1) was cultured in the same medium with G418 (0.5 g/L Gibco).
as §1

REN (mt-rhPECAM-1) = experiment: In vitro angiogenesis assay in REN cells transfected with human PECAM-1 gene; format: cell-based; details: REN transfected with human PECAM-1 gene, VEGF 25 ng/ml or LacCer 4 hrs, compared with control
Protocol: as §2, §3, §1

GlcCer = details: HUVECs
GalT-V [3] = experiment: GalT-V protein expression by immunoblot in siRNA transfected HUVECs; format: cell-based, human; details: siRNA duplex 100 nM, 48 hrs after transfection
Protocol: Next, 48 hrs after transfection cells were harvested lysed, and GalT-V protein levels were analyzed by immunoblot probed with GalT-V antibody or b-actin, as shown in the figure. GalT-V expression was expressed as % control, when normalized with b-actin expression and the relative quantification values are shown below the immunoblot. (C) HUVECs were transfected with either scrambled GalT-V siRNA (100 nM) or GalT-V siRNA (100 nM). […] The data shown is representative of two identical experiments yielding similar result. […] HUVECs were transfected with siRNA duplexes using Oligofectamine (Invitrogen), following protocol supplied by the manufacturer. Western Immunoblot Analysis-25 g of protein was resolved by 10% SDS-PAGE and then transferred to nitrocellulose membrane. The membrane-bound primary antibodies were visualized by horseradish peroxidase-conjugated secondary antibody using chemiluminescence kit. The films were then densitometrically scanned using Molecular Dynamics Image Scanner and analyzed using Image Quant software.

GalT-V [4] = experiment: LacCer synthase (GalT-V) enzyme activity in siRNA transfected HUVECs; format: cell-based, human; details: siRNA 100 nM, compared with scrambled siRNA treated cells
Protocol: (C) HUVECs were transfected with either scrambled GalT-V siRNA (100 nM) or GalT-V siRNA (100 nM). 48 hrs post transfection, cells were lysed and Cer synthase enzyme activity was performed as described in “Materials and Methods”. […] HUVECs were transfected with siRNA duplexes using Oligofectamine (Invitrogen), following protocol supplied by the manufacturer.

GbOse3Cer = GbOse3Cer synthesis in HUVECs; format: cell-based, human; details: cells treated with VEGF, with and without D-PDMP (data not shown)
HUVEC = experiment: Apoptosis in HUVEC; format: cell-based, human; details: D-PDMP 20 μM up to 4-6 hrs, HUVEC (data not shown)
LacCer synthase = details: previously shown; cited from earlier work
NF-κB = experiment: Cytosolic NF-κB expression in HUVECs; format: cell-based, human; details: HUVECs pre-treated with NAC, DPI or PDTC
[5] = HUVECs, VEGF 30 ng/ml for 4 hrs
[6] = CC 5.0 μM, GÖ 6850 and 6976 50 nM, BPB 10 μM, MAFP 3.0 μM, compared with vehicle (DMSO)
[7] = VEGF 25 ng/ml 4 hrs, compared to scrambled siRNA transfected cells
[8] = D-PDMP 20 μM for 90 min, then VEGF 25 ng/ml
[9] = HUVECs pretreated with PPMP 20 μM
[10] = cells treated with increasing concentrations of L-PDMP

Q: What does the source list for Lactosylceramide [LacCer]?
A: bypass of D-PDMP inhibition of PECAM-1 mRNA expression (PECAM-1 [1]; D-PDMP 20 μM 90 min, then VEGF 25 ng/ml and LacCer 2.5 μM 4 hrs): bypassed; bypass of inhibitory effect of D-PDMP on VEGF induced PECAM-1 protein expression (PECAM-1 [2]): bypassed; PECAM-1 expression induced by lipid (PECAM-1 [2]; HUVECs): significantly induced; reversal of inhibitory effect of PPMP on VEGF induced PECAM-1 expression (PECAM-1 [2]; HUVECs): reversed; reversal of inhibitory effect of PPMP on VEGF induced angiogenesis (HUVECs; HUVECs): reversed; induction of angiogenesis (HUVECs; HUVECs, independent of presence/absence of D-PDMP and VEGF): significantly induced; tube formation (REN (WT) cells): failed to form tube-like structures; tube formation (REN (mt-rhPECAM-1)): induced tube formation

Q: For CCCCCCCCCCCCC/C=C/[C@@H](O)[C@H](CO)NC(C)=O [C2ceramide], which “bypass of inhibitory effect of D-PDMP on VEGF induced PECAM-1 protein expression” value (PECAM-1 [2]) is on record?
A: failed to bypass

Q: And the “PECAM-1 expression induced by lipid” value (PECAM-1 [2]; HUVECs)?
A: did not induce

Q: What about the “bypass of inhibitory effect of D-PDMP on VEGF induced angiogenesis” value (HUVECs) of the same compound?
A: failed to bypass

Q: For “Vascular endothelial growth factor [VEGF]”, which “time of maximal PECAM-1 mRNA expression” value (PECAM-1 [1]; HUVECs, VEGF 25 ng/ml, different time points) is on record?
A: 4 to 5 h

Q: And the “PECAM-1 mRNA expression” value (PECAM-1 [1]; [5])?
A: Maximal

Q: What about the “PECAM-1 mRNA expression” value (PECAM-1 [1]; HUVECs, VEGF 5-30 ng/ml) of the same compound?
A: dose-dependent increase

Q: And the “time of maximal PECAM-1 protein expression” value (PECAM-1 [2]; HUVECs, VEGF 25 ng/ml, various time intervals)?
A: 4 h

Q: And the PECAM-1 protein expression (PECAM-1 [2]; [5])?
A: maximal

Q: What about the tube formation (REN (WT) cells) of the same compound?
A: failed to form tube-like structures

Q: What about the tube formation (REN (mt-rhPECAM-1)) of the same compound?
A: induced tube formation

Q: What about the “de novo biosynthesis of LacCer” value (LacCer; HUVECs, VEGF 25 ng/ml, time-dependent, from 10 min) of the same compound?
A: significantly stimulated

Q: And the “biosynthesis of GlcCer” value (GlcCer; VEGF 25 ng/ml)?
A: stimulated

Q: With Cn1c2ccccc2c2c3c(c4c5ccccc5n(CCC#N)c4c21)CNC3=O [GÖ 6976] as the compound, how does the “VEGF/LacCer induced PECAM-1 expression” value (PECAM-1 [2]; [6]) read?
A: abrogated

Q: What about the “VEGF/LacCer induced tube formation” value (HUVECs; [6]) of the same compound?
A: abrogated

Q: With digalactosylceramide [DGDG] as the compound, how does the “bypass of inhibitory effect of D-PDMP on VEGF induced PECAM-1 protein expression” value (PECAM-1 [2]) read?
A: failed to bypass

Q: What about the “PECAM-1 expression induced by lipid” value (PECAM-1 [2]; HUVECs) of the same compound?
A: did not induce

Q: What about the “bypass of inhibitory effect of D-PDMP on VEGF induced angiogenesis” value (HUVECs) of the same compound?
A: failed to bypass

Q: With CC(C)c1cc(/C=C(\C#N)C(=O)NCCCc2ccccc2)cc(C(C)C)c1O [SU 1498] as the compound, how does the “LacCer induced tube formation/angiogenesis” value (HUVECs; HUVECs pre-treated with SU 1498 1 hr, then LacCer) read?
A: not LacCer

Q: What about the “VEGF induced tube formation/angiogenesis” value (HUVECs; HUVECs pre-treated with SU 1498 1 hr, then VEGF) of the same compound?
A: failed to induce tube formation/angiogenesis

Q: Which results are given for “GalT-V specific siRNA duplex: siRNA for human GalT-V: 5′-CGG AGU GAG UGG CUU AAC A dTdT-3′ (sense), 5′-UGU UAA GCC ACU CAC UCC G dTdT-3′ (antisense) (sense CGGAGUGAGUGGCUUAACATT; antisense UGUUAAGCCACUCACUCCGTT; chemistry not fully specified)”?
A: PECAM-1 expression in GalT-V silenced cells treated with VEGF (PECAM-1 [2]; [7]): No change; angiogenesis in GalT-V silenced cells treated with VEGF (HUVECs; [7]): blunted; decrease of GalT-V protein expression (GalT-V [3]): ~70%; decrease of GalT-V enzyme activity (GalT-V [4]): ~62%

Q: Which results are given for CCCCCCCCCC(=O)N[C@H](CN1CCOCC1)[C@H](O)c1ccccc1 [D-PDMP, (1R,2R)-1-phenyl-2-decanoylamino-3-morpholino-1-propanol]?
A: VEGF induced PECAM-1 mRNA expression (PECAM-1 [1]; [8]): abrogated; VEGF induced PECAM-1 protein expression (PECAM-1 [2]; [8]): abrogated; VEGF-induced PECAM-1 expression (PECAM-1 [2]; HUVECs pre-incubated with D-PDMP 10-30 μM, then VEGF 25 ng/ml 4 hrs): concentration-dependent inhibition; level of GbOse3Cer synthesis (GbOse3Cer): similar; VEGF induced angiogenesis (HUVECs; HUVECs, D-PDMP): significantly mitigated; apoptosis (HUVEC): did not induce apoptosis; VEGF induced LacCer biosynthesis (LacCer; HUVECs pretreated with 20 μM D-PDMP, then VEGF 25 ng/ml): mitigated; VEGF induced GlcCer synthesis (GlcCer; D-PDMP 20 μM pretreatment, as early as 10 min): inhibited; action on LacCer synthase (LacCer synthase): inhibitor of purified LacCer synthase

Q: What does the source list for S=C(S)N1CCCC1 [PDTC, 1-pyrrolidinecarbodithioicacid]?
A: VEGF/LacCer induced PECAM-1 (PECAM-1 [2]): significantly blunted; VEGF/LacCer induced cytosolic NF-κB expression (NF-κB): significantly blunted

Q: Which “VEGF/LacCer induced PECAM-1 expression” value (PECAM-1 [2]) does the source give for bromophenacyl bromide [BPB] here?
A: abrogated

Q: What about the “VEGF/LacCer induced tube formation” value (HUVECs) of the same compound?
A: abrogated

Q: Which “bypass of inhibitory effect of D-PDMP on VEGF induced PECAM-1 protein expression” value (PECAM-1 [2]) does the source give for glucosylceramide [GlcCer] here?
A: failed to bypass

Q: And the “PECAM-1 expression induced by lipid” value (PECAM-1 [2]; HUVECs)?
A: did not induce

Q: And the “reversal of inhibitory effect of PPMP on VEGF induced PECAM-1 expression” value (PECAM-1 [2]; HUVECs)?
A: also reversed

Q: What about the “bypass of inhibitory effect of D-PDMP on VEGF induced angiogenesis” value (HUVECs) of the same compound?
A: failed to bypass

Q: And the “reversal of inhibitory effect of PPMP on VEGF induced angiogenesis” value (HUVECs; HUVECs)?
A: also reversed

Q: With CN(C)CCCn1cc(C2=C(c3c[nH]c4ccccc34)C(=O)NC2=O)c2ccccc21 [GÖ 6850] as the compound, how does the “VEGF/LacCer induced PECAM-1 expression” value (PECAM-1 [2]; [6]) read?
A: abrogated

Q: And the “VEGF/LacCer induced tube formation” value (HUVECs; [6])?
A: abrogated

Q: For c1ccc2c(c1)[I+]c1ccccc1-2 [DPI, diphenylene iodonium], which “VEGF/LacCer induced PECAM-1” value (PECAM-1 [2]) is on record?
A: significantly blunted

Q: And the “VEGF/LacCer induced cytosolic NF-κB expression” value (NF-κB)?
A: significantly blunted

Q: With CC(=O)N[C@@H](CS)C(=O)O [NAC, N-Acetyl-L-cysteine] as the compound, how does the “VEGF/LacCer induced PECAM-1” value (PECAM-1 [2]) read?
A: significantly blunted

Q: Which “VEGF induced PECAM-1 expression” value (PECAM-1 [2]; [9]) does the source give for CCCCCCCCCCCCCCCC(=O)NC(CN1CCOCC1)C(O)c1ccccc1 (centres unmarked) [PPMP] here?
A: mitigation

Q: And the VEGF induced angiogenesis (HUVECs; [9])?
A: mitigation

Q: For CCCCCCCCCC(=O)N[C@@H](CN1CCOCC1)[C@@H](O)c1ccccc1 [L-PDMP], which PECAM-1 expression (PECAM-1 [2]; [10]) is on record?
A: significantly induced

Q: And the angiogenesis (HUVECs; [10])?
A: significantly induced

Q: And the “action on LacCer synthase” value (LacCer synthase)?
A: potent activator
